Our source for the EC50 values is patent US20240131028A1, “CHEMOVACCINATION AGAINST PLASMODIUM INFECTION WITH SELECTIVE PLASMEPSIN X INHIBITORS” (Merck Sharp & Dohme LLC, priority 2021, published 2024).

SMILES strings stand for the structures.

The first assay deals with ring stage parasites (Pf). Description: Parasite lactate dehydrogenase (LDH) growth assay (Parasite Assay, PfLDH Assay). The class given is cell-based, P. falciparum. Conditions: Plasmodium falciparum, 72 h, Table 3; 72 hours growth, LDH readout; read-out: EC50. As to the method:
The parasite stock was maintained at 4% haematocrit in RPMI-Hepes media buffered with sodium bicarbonate and supplemented with 5% heat inactivated human serum and 0.5% albumax. […] On the day of assay set up, a blood smear of the parasite culture was Giemsa stained and counted. The parasitemia was adjusted to 0.7% rings and the haematocrit was diluted to 2% in RPMI-Hepes media buffered with sodium bicarbonate and supplemented with 5% heat inactivated human serum and 0.5% albumax. 30 μl of diluted parasites are then added into 10 μl of media+compound in pre-prepared Greiner TC assay plates. Parasite assay plates were placed in gassed humidified boxes in single layer and allowed to incubate at 37° C. for 72 hours. After 72 hours growth, assay plates were sealed with parafilm and frozen flat, in single file at −80° C. overnight. On the following day, assay plates were allowed to thaw at room temperature for 4 hours to which an LDH assay was performed to measure parasite growth.
By EC50 is commonly meant the midpoint of the concentration-response curve. On to `COCC[C@H]([C@H]1C[C@@H]1C(=O)N[C@H]1CC(C)(C)Oc2cc(C)c(Cl)cc21)N1C(=N)NC(C)(C)CC1=O` [Example 137B], for which the EC50 was found to be 6.4 nM.

Regarding `COc1ccc([C@H]([C@H]2C[C@@H]2C(=O)N[C@H]2C[C@H](C(F)(F)F)Oc3ccccc32)N2C(=N)NC(C)(C)CC2=O)cn1` [Example 37], the EC50 was determined as 1.2 nM.

With `COCC[C@H]([C@H]1C[C@@H]1C(=O)N[C@@H]1CC(C)(C)Oc2cc(C)ccc21)N1C(=N)NC(C)(C)CC1=O` [Example 83B], the EC50 was determined as 26 nM.

Regarding `CC1(C)CC(=O)N(C[C@H]2C[C@@H]2C(=O)N[C@H]2CC(C)(C)Oc3ccc(F)cc32)C(=N)N1` [Example 71], the EC50 stood at 125 nM.

Consider `CC[C@]1(C)CC(=O)N([C@H](c2cncc(F)c2)[C@H]2C[C@@H]2C(=O)N[C@@H]2c3ccccc3OC(C)(C)[C@H]2O)C(=N)N1` [Example 66], for which the EC50 was 2.6 nM.

For `COCC[C@H]([C@H]1C[C@@H]1C(=O)N[C@H]1C[C@@H](C(F)(F)F)Oc2ccccc21)N1C(=N)NC(C)(C)CC1=O` [Example 24A], the EC50 was found to be 3.4 nM.

Take `CC1(C)CC(=O)N([C@H](c2cccnc2)[C@H]2C[C@@H]2C(=O)N[C@@H]2CC(C)(C)Oc3c(C(F)(F)F)ccc(F)c32)C(=N)N1` [Example 115A]: the EC50 was 6.6 nM.

`CC[C@]1(C)CC(=O)N([C@@H](CCOC)[C@H]2C[C@@H]2C(=O)N[C@H]2CC(C)(C)Oc3ccccc32)C(=N)N1` [Example 64B]: the EC50 was 195 nM.

On to `CC1C[C@H](NC(=O)[C@H]2C[C@@H]2CN2C(=N)NC(C)(C)CC2=O)c2cc(F)ccc2O1` (stereo partly drawn) [Example 139A], for which the EC50 stood at 99 nM.

Turning to `CC1(C)CC(=O)N(C[C@H]2C[C@@H]2C(=O)NC2CC(C)(C)Oc3ccc(OC(F)(F)F)cc32)C(=N)N1` (stereo partly drawn) [Example 125A], the EC50 worked out at 231 nM.

Consider `COCC[C@H]([C@H]1C[C@@H]1C(=O)NC1CC(C)(C)Oc2c(Cl)cccc21)N1C(=N)NC(C)(C)CC1=O` (stereo partly drawn) [Example 112A], for which the EC50 turned out to be 18 nM.

On to `CC1(C)CC(=O)N(C[C@H]2C[C@@H]2C(=O)NC2CC(C)(C)Oc3c(Cl)cc(Cl)cc32)C(=N)N1` (stereo partly drawn) [Example 97A], for which the EC50 amounted to 180 nM.

For the molecule `CC[C@]1(C)CC(=O)N([C@H](CCOC)[C@H]2C[C@@H]2C(=O)N[C@H]2CC(C)(C)Oc3ccccc32)C(=N)N1` [Example 64A], the EC50 worked out at 2.3 nM.

On to `CCC1(CC)CC(=O)N(C[C@H]2C[C@@H]2C(=O)N[C@H]2C[C@@H](C(F)(F)F)Oc3ccccc32)C(=N)N1` [Example 8A], for which the EC50 worked out at 37 nM.

For the molecule `CCC1(CC)CC(=O)N(C[C@H]2C[C@@H]2C(=O)N[C@H]2CC(C)(C)Oc3ccc(F)cc32)C(=N)N1` [Example 7A], the EC50 worked out at 135 nM.

For the molecule `CCC1(CC)CC(=O)N(C[C@H]2C[C@@H]2C(=O)N[C@H](C)c2ccccc2)C(=N)N1` [Example 3B], the EC50 was 151 nM.

With `COc1cncc([C@H]([C@H]2C[C@@H]2C(=O)N[C@H]2C[C@H](C(F)(F)F)Oc3ccccc32)N2C(=N)NC(C)(C)CC2=O)c1` [Example 41], the EC50 worked out at 1.1 nM.

As to `CCC1(CC)CC(=O)N(CC2C(C(=O)N[C@H]3C[C@@H](C(F)(F)F)Oc4ccccc43)C2(C)C)C(=N)N1` (stereo partly drawn) [Example 31A], the EC50 amounted to 215 nM.

`CC[C@]1(C)CC(=O)N([C@H](c2cccnc2)[C@H]2C[C@@H]2C(=O)N[C@H]2CC(C)(C)Oc3ccccc32)C(=N)N1` [Example 63]: the EC50 was 1.2 nM.

`CC[C@]1(C)CC(=O)N([C@H](CCOC)[C@H]2C[C@@H]2C(=O)N[C@H]2C[C@H](C(F)(F)F)Oc3ccccc32)C(=N)N1` [Example 62B]: the EC50 is 0.8 nM.

As for `CC1(C)CC(=O)N([C@H](c2cccnc2)[C@@H]2[C@@H](C(=O)N[C@H]3C[C@H](C(F)(F)F)Oc4ccccc43)C2(C)C)C(=N)N1` [Example 43A], the EC50 amounted to 4 nM.

Regarding `COCC[C@H]([C@H]1C[C@@H]1C(=O)N[C@H]1CC(C)(C)Oc2cccc(F)c21)N1C(=N)NC(C)(C)CC1=O` [Example 88A], the half-maximal effective concentration (EC50) came out at 5.2 nM.

`CC1(C)CC(=O)N([C@@H](c2cccnc2)[C@@H]2[C@@H](C(=O)N[C@H]3C[C@H](C(F)(F)F)Oc4ccccc43)C2(C)C)C(=N)N1` [Example 43B]: the EC50 came out at 37 nM.

In the case of `CCC1(CC)CC(=O)N(C[C@H]2C[C@@H]2C(=O)N[C@@H]2CC(C)(C)Oc3ccc(F)cc32)C(=N)N1` [Example 7B], the EC50 stood at 29 nM.

Consider `CC1(C)CC(=O)N(C[C@H]2C[C@@H]2C(=O)N[C@H]2CC(C)(C)Oc3ccc(Cl)cc32)C(=N)N1` [Example 95], for which the EC50 is 110 nM.

With `COCC[C@H]([C@H]1C[C@@H]1C(=O)N[C@@H]1CC(C)(C)Oc2c(C(F)(F)F)ccc(F)c21)N1C(=N)NC(C)(C)CC1=O` [Example 114A], the EC50 turned out to be 89 nM.

As for `COCC[C@H]([C@H]1C[C@@H]1C(=O)N[C@H]1CC(C)(C)Oc2cc(C)ccc21)N1C(=N)NC(C)(C)CC1=O` [Example 83A], the EC50 amounted to 6.6 nM.

In the case of `Cc1ccc2c(c1)[C@@H](NC(=O)[C@H]1C[C@@H]1CN1C(=N)NC(C)(C)CC1=O)CC(C)(C)O2` [Example 128], the EC50 was found to be 280 nM.

Regarding `CCC1(CC)CC(=O)N([C@H](c2cccnc2)[C@H]2C[C@@H]2C(=O)N[C@H]2CCOc3ccccc32)C(=N)N1` [Example 9], the EC50 stood at 6.9 nM.

For `COCC[C@H]([C@H]1C[C@@H]1C(=O)NC1CC(C)(C)Oc2c(Cl)cc(Cl)cc21)N1C(=N)NC(C)(C)CC1=O` (stereo partly drawn) [Example 106A], the EC50 stood at 7.4 nM.

For the molecule `CC1(C)CC(=O)N([C@H](c2cccnc2)[C@H]2C[C@@H]2C(=O)NC2CC(C)(C)Oc3c(F)cccc32)C(=N)N1` (stereo partly drawn) [Example 93A], the 50% effective concentration (EC50) came to 3.3 nM.

Take `COCC[C@H]([C@H]1C[C@@H]1C(=O)N[C@H]1CC(C)(C)Oc2ccc(C(F)(F)F)cc21)N1C(=N)NC(C)(C)CC1=O` [Example 110B]: the EC50 was determined as 7.2 nM.

For the molecule `COCC[C@H]([C@H]1C[C@@H]1C(=O)N[C@@H]1CC(C)(C)Oc2cccc(Cl)c21)N1C(=N)NC(C)(C)CC1=O` [Example 116B], the EC50 came out at 18 nM.

With `CC1(C)CC(=O)N([C@H](c2cccnc2)[C@H]2C[C@@H]2C(=O)N[C@H]2C[C@H](C(F)(F)F)Oc3ccccc32)C(=N)N1` [Example 32], the EC50 came out at 1.8 nM.

Take `CC1(C)CC(=O)N([C@@H](c2cncc(Cl)c2)[C@H]2C[C@@H]2C(=O)N[C@H]2CC(C)(C)Oc3ccccc32)C(=N)N1` [Example 58A]: the EC50 came to 210 nM.

The assay is the same for the next values; noted with them: Plasmodium falciparum, 72 h, Table 4; 72 hours growth, LDH readout; read-out: EC50 (Table 4).
In the case of `CCC1(CC)CC(=O)N([C@H](CCOC)[C@H]2C[C@@H]2C(=O)N[C@@H]2CC(C)(C)Oc3ccccc32)C(=N)N1` [Example 141], the EC50 is 4.7 nM.

Still in this assay, the particulars now being: Table 3; 72 hours growth, LDH readout; read-out: EC50.
With `CC1(C)CC(=O)N([C@H](c2cccnc2)[C@H]2C[C@@H]2C(=O)NC2CC(C)(C)Oc3ccc(C(F)(F)F)cc32)C(=N)N1` (single isomer, unassigned) [Example 109A], the EC50 was determined as 2.3 nM.

Take `COCC[C@H]([C@H]1C[C@@H]1C(=O)NC1CC(C)(COC)Oc2ccccc21)N1C(=N)NC(C)(C)CC1=O` (single isomer, unassigned) [Example 82A]: the EC50 amounted to 24.4 nM.

With `CC(C)C1(C)CC(NC(=O)[C@H]2C[C@@H]2CN2C(=N)NC(C)(C)CC2=O)c2ccccc2O1` (single isomer, unassigned) [Example 79C], the EC50 is 289 nM.

Take `COCC[C@H]([C@H]1C[C@@H]1C(=O)NC1CC(C)(C)Oc2ccccc21)N1C(=N)NC(C)(C)CC1=O` (stereo partly drawn) [Example 23B]: the EC50 is 15 nM.

Regarding `CC1(C)CC(=O)N([C@H](c2cccnc2)[C@H]2C[C@@H]2C(=O)NC2CC(C)(C)Oc3c(F)cc(F)cc32)C(=N)N1` (stereo partly drawn) [Example 122B], the EC50 was 2.2 nM.

Turning to `CC1[C@H](C(c2cccnc2)N2C(=N)NC(C)(C)CC2=O)[C@H]1C(=O)N[C@H]1C[C@H](C(F)(F)F)Oc2ccccc21` (single isomer, unassigned) [Example 54B], the EC50 is 130 nM.

As for `CCC1(C)CC(NC(=O)[C@H]2C[C@@H]2[C@@H](c2cccnc2)N2C(=N)NC(C)(C)CC2=O)c2ccccc2O1` (single isomer, unassigned) [Example 105A], the 50% effective concentration (EC50) was 0.9 nM.

Take `CCC1(CC)CC(=O)N(C[C@H]2C(C)[C@@H]2C(=O)N[C@H]2C[C@@H](C(F)(F)F)Oc3ccccc32)C(=N)N1` (stereo partly drawn) [Example 28B]: the EC50 is 14 nM.

Consider `COCC[C@H]([C@H]1C[C@@H]1C(=O)NC1CC(C)(COC)Oc2ccccc21)N1C(=N)NC(C)(C)CC1=O` (single isomer, unassigned) [Example 82B], for which the EC50 amounted to 57 nM.

For the molecule `CC(C)C1(C)CC(NC(=O)[C@H]2C[C@@H]2[C@@H](c2cccnc2)N2C(=N)NC(C)(C)CC2=O)c2ccccc2O1` (single isomer, unassigned) [Example 81A], the EC50 was 2.7 nM.

Turning to `COc1ccc2c(c1)OC(C)(C)C[C@@H]2NC(=O)[C@H]1C[C@@H]1[C@H](c1cccnc1)N1C(=N)NC(C)(C)CC1=O` [Example 65B], the EC50 worked out at 8 nM.

The same assay, now with this note: Table 4; 72 hours growth, LDH readout; read-out: EC50 (Table 4).
Take `CCC1(CC)CC(=O)N(C(CC(C)OC)[C@H]2C[C@@H]2C(=O)N[C@H]2CC(C)(C)Oc3ccccc32)C(=N)N1` (single isomer, unassigned) [Example 142D]: the EC50 is 115 nM.
